Experimental findings from patent US7491794B2, “Macrocyclic compounds as inhibitors of viral replication” (Intermune, Inc., priority 2003, dated 2009) are described below.

One experiment has as its target T1, NS3-NS4A protease (Hepatitis C virus genotype 1a, UniProt P27958).
T1 construct: Recombinant E. coli or Baculovirus full-length NS3 was diluted to 3.33 μM with assay buffer; made in house; host or cells: E. coli or baculovirus (BV) system
The experiment can be described thus: NS3-NS4A protease assay (NS3 inhibition assay, RETS1 substrate), Section B. The format is biochemical. The note with it: read-out: NS3-NS4A IC50. Summed up: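 Kinetic fluorescence read (335 nm excitation, 495 nm emission, 30 min) of RETS1 cleavage by NS3/NS4A-2 complex, 2 nM E. coli or 3 nM baculovirus NS3, after 10 min room-temperature compound pre-incubation. Four-parameter-fit IC50s converted to Ki by Cheng–Prusoff, Ki=IC50/(1+[S]/Km).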

Experiment [1] has as its system HCV sub-genomic replicon, GS4.3. Put plainly: Quantitation by ELISA of NPTII in the HCV sub-genomic replicon, GS4.3, Section B. The format is cell-based. The note with it: Hepatitis C virus, read-out: Replicon EC50. From the text:
Quantitation by ELISA of the Selectable Marker Protein, Neomycin Phosphotransferase II (NPTII) in the HCV Sub-Genomic Replicon, GS4.3
The HCV sub-genomic replicon (1377/NS3-3′, accession No. AJ242652), stably maintained in HuH-7 hepatoma cells, was created by Lohmann et al. Science 285: 110-113 (1999). The replicon-containing cell culture, designated GS4.3, was obtained from Dr. Christoph Seeger of the Institute for Cancer Research, Fox Chase Cancer Center, Philadelphia, Pa.
GS4.3 cells were maintained at 37° C., 5% CO2, in DMEM (Gibco 11965-092) supplemented with L-glutamine 200 mM (100×) (Gibco25030-081), non-essential amino acids (NEAA)(Biowhittaker 13-114E), heat-inactivated (HI) Fetal Bovine Serum(FBS)(Hyclone SH3007.03) and 750 μg/ml geneticin (G418)(Gibco 10131-035). Cells were sub-divided 1:3 or 4 every 2-3 days.
24 hours prior to the assay, GS4.3 cells were collected, counted, and plated in 96-well plates (Costar 3585) at 7500 cells/well in 100 μl standard maintenance medium (above) and incubated in the conditions above. To initiate the assay, culture medium was removed, cells were washed once with PBS (Gibco 10010-023) and 90 μl Assay Medium (DMEM, L-glutamine, NEAA, 10% HI FBS, no G418) was added. Inhibitors were made as a 10× stock in Assay Medium, (3-fold dilutions from 10 μM to […] final concentration, final DMSO concentration 1%), 10 μl were added to duplicate wells, plates were rocked to mix, and incubated as above for 72 h.
An NPTII ELISA kit was obtained from AGDIA, Inc. (Compound direct ELISA test system for Neomycin Phosphotransferase II, PSP 73000/4800). Manufacturer's instructions were followed, with some modifications. 10×PEB-1 lysis buffer was made up to include 500 μM PMSF (Sigma P7626, 50 mM stock in isopropanol). After 72 h incubation, cells were washed once with PBS and 150 μl PEB-1 with PMSF was added per well. Plates were agitated vigorously for 15 minutes, room temperature, then frozen at −70° C. Plates were thawed, lysates were mixed thoroughly, and 100 μl were applied to an NPTII Elisa plate. A standard curve was made. Lysate from DMSO-treated control cells was pooled, serially diluted with PEB-1 with PMSF, and applied to duplicate wells of the ELISA plate, in a range of initial lysate amount of 150u1-2.5 ul. In addition, 100 μl buffer alone was applied in duplicate as a blank. Plates were sealed and gently agitated at room temperature for 2 h. Following capture incubation, the plates were washed 5×300 μl with PBS-T (0.5% Tween-20, PBS-T was supplied in the ELISA kit). For detection, a 1× dilution of enzyme conjugate diluent MRS-2 (5×) was made in PBS-T, into which 1:100 dilutions of enzyme conjugates A and B were added, as per instructions. Plates were resealed, and incubated with agitation, covered, room temperature, for 2 h. The washing was then repeated and 100 μl of room temperature TMB substrate was added. After approximately 30 minutes incubation (room temperature, agitation, covered), the reaction was stopped with 50 μl 3M sulfuric acid. Plates were read at 450 nm on a Molecular Devices Versamax plate reader.
Inhibitor effect was expressed as a percentage of DMSO-treated control signal, and inhibition curves were calculated using a 4-parameter equation: y=A+((B−A)/(1+((C/x)^D))), where C is half-maximal activity or EC50.

The structures appear in SMILES notation. Read-outs that look alike come from different tables or passages of the source.

T1 sequence (P27958 1027-1657): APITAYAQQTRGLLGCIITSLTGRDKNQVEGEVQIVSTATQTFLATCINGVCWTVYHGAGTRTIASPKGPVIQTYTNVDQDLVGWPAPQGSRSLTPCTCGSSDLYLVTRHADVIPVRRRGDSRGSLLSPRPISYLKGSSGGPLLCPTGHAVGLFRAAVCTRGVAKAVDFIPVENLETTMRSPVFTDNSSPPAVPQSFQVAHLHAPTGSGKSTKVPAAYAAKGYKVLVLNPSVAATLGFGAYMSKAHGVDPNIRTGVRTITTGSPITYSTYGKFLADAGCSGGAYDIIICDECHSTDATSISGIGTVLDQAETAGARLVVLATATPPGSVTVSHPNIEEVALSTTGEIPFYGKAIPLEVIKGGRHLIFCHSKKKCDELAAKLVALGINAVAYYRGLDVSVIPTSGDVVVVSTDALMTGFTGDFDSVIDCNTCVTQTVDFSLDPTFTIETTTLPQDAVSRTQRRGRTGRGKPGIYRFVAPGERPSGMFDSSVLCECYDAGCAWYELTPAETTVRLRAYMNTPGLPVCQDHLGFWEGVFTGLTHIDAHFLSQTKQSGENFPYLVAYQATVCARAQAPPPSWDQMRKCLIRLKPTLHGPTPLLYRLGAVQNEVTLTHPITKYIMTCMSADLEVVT

Take `CC(C)(C)OC(=O)N[C@H]1CCCCC/C=C\[C@@H]2C[C@@]2(C(=O)NS(C)(=O)=O)NC(=O)[C@@H]2C[C@@H](OC(=O)N3CCc4ccccc4C3)CN2C1=O` [AR00254906, (1S,4R,6S,14S,18R)-3,4-Dihydro-1H-isoquinoline-2-carboxylic acid 14-tert-butoxycarbonylamino-4-methanesulfonylaminocarbonyl-2,15-dioxo-3,16-diaza-tricyclo[14.3.0.0^4,6]nonadec-7-en-18-yl ester]: the half-inhibitory concentration (IC50) (usually the concentration at which inhibition is half-maximal) at NS3-NS4A protease is under 100 nM. Moreover, in experiment [1] (GS4.3 cells, 72 h incubation), the EC50 (in general, the concentration giving half of the maximal effect) was under 1000 nM.

With `CC(C)S(=O)(=O)NC(=O)[C@@]12C[C@H]1/C=C\CCCCC[C@H](NC(=O)OC(C)(C)C)C(=O)N1C[C@H](OC(=O)N3CCc4ccccc4C3)C[C@H]1C(=O)N2` [AR00261407, (1S,4R,6S,14S,18R)-3,4-Dihydro-1H-isoquinoline-2-carboxylic acid 14-tert-butoxycarbonylamino-2,15-dioxo-4-(propane-2-sulfonylaminocarbonyl)-3,16-diaza-tricyclo[14.3.0.0^4,6]nonadec-7-en-18-yl ester], at NS3-NS4A protease, the concentration for half-maximal inhibition (IC50) was under 100 nM. Further, the EC50 in experiment [1] (72 h) was under 1000 nM.

As for `CC(C)(C)OC(=O)N[C@H]1CCCCC/C=C\[C@@H]2C[C@@]2(C(=O)NS(=O)(=O)C2CC2)NC(=O)[C@@H]2C[C@@H](OC(=O)N3CCc4ccccc4C3)CN2C1=O` [AR00261408, (1S,4R,6S,14S,18R)-3,4-Dihydro-1H-isoquinoline-2-carboxylic acid 14-tert-butoxycarbonylamino-4-cyclopropanesulfonylaminocarbonyl-2,15-dioxo-3,16-diaza-tricyclo[14.3.0.0^4,6]nonadec-7-en-18-yl ester], the IC50 at NS3-NS4A protease is under 100 nM. In experiment [1] (GS4.3 cells, 72 h incubation), the EC50 is under 100 nM.

In the case of `CCCCS(=O)(=O)NC(=O)[C@@]12C[C@H]1/C=C\CCCCC[C@H](NC(=O)OC(C)(C)C)C(=O)N1C[C@H](OC(=O)N3CCc4ccccc4C3)C[C@H]1C(=O)N2` [AR00261409, (1S,4R,6S,14S,18R)-3,4-Dihydro-1H-isoquinoline-2-carboxylic acid 4-(butane-1-sulfonylaminocarbonyl)-14-tert-butoxycarbonylamino-2,15-dioxo-3,16-diaza-tricyclo[14.3.0.0^4,6]nonadec-7-en-18-yl ester], the IC50 at NS3-NS4A protease is under 100 nM. For the same compound, the concentration for a half-maximal effect (EC50) in experiment [1] (72 h) is under 10000 nM.

Consider `O=C(N[C@H]1CCCCC/C=C\[C@@H]2C[C@@]2(C(=O)NS(=O)(=O)C2CC2)NC(=O)[C@@H]2C[C@@H](OC(=O)N3CCc4ccccc4C3)CN2C1=O)OC1CCCC1` [AR00282131, (1S,4R,6S,14S,18R)-3,4-Dihydro-1H-isoquinoline-2-carboxylic acid 14-cyclopentyloxycarbonylamino-4-cyclopropanesulfonylaminocarbonyl-2,15-dioxo-3,16-diaza-tricyclo[14.3.0.0^4,6]nonadec-7-en-18-yl ester], for which the IC50 at NS3-NS4A protease was under 100 nM. For the same compound, the EC50 in experiment [1] (GS4.3 cells, 72 h incubation) was under 100 nM.

As to `CC(C)(C)OC(=O)N[C@H]1CCCCC/C=C\[C@@H]2C[C@@]2(C(=O)NS(=O)(=O)C2CC2)NC(=O)[C@@H]2C[C@@H](NC(=O)N3CCc4ccccc4C3)CN2C1=O` [AR00287266, (is, 4R, 6S, 14S, 18R)-{4-Cyclopropanesulfonylaminocarbonyl-18-[(3,4-dihydro-1H-isoquinoline-2-carbonyl)-amino]-2,15-dioxo-3,16-diaza-tricyclo[14.3.0.0^4,6]nonadec-7-en-14-yl}-carbamic acid tert-butyl ester], at NS3-NS4A protease, the half-inhibitory concentration (IC50) is under 100 nM. For the same compound, in experiment [1] (GS4.3 cells, 72 h incubation), the EC50 is under 1000 nM.

Consider `CC(C)(C)OC(=O)N[C@H]1CCCCC/C=C\[C@@H]2C[C@@]2(C(=O)O)NC(=O)[C@@H]2C[C@@H](OC(=O)N3Cc4ccccc4C3)CN2C1=O` [AR00291871, (1S,4R,6S,14S,18R)-14-tert-Butoxycarbonylamino-18-(1,3-dihydro-isoindole-2-carbonyloxy)-2,15-dioxo-3,16-diaza-tricyclo[14.3.0.0^4,6]nonadec-7-ene-4-carboxylic acid], for which, on NS3-NS4A protease, the IC50 was under 100 nM. Moreover, in experiment [1] (GS4.3 cells, 72 h incubation), the EC50 is under 1000 nM.

With `CC(C)(C)OC(=O)N[C@H]1CCCCC/C=C\[C@@H]2C[C@@]2(C(=O)O)NC(=O)[C@@H]2C[C@@H](OC(=O)N3CCc4ccccc43)CN2C1=O` [AR00291875, (1S,4R,6S,14S,18R)-14-tert-Butoxycarbonylamino-18-(2,3-dihydro-indole-1-carbonyloxy)-2,15-dioxo-3,16-diaza-tricyclo[14.3.0.0^4,6]nonadec-7-ene-4-carboxylic acid], the IC50 at NS3-NS4A protease was under 1000 nM. Besides, the EC50 in experiment [1] (GS4.3 cells, 72 h incubation) was under 10000 nM.

`CC(C)(C)NC(=O)N[C@H]1CCCCC/C=C\[C@@H]2C[C@@]2(C(=O)O)NC(=O)[C@@H]2C[C@@H](OC(=O)N3CCc4ccccc4C3)CN2C1=O` [AR00294377, (1S,4R,6S,14S,18R)-14-(3-tert-Butyl-ureido)-18-(3,4-dihydro-1H-isoquinoline-2-carbonyloxy)-2,15-dioxo-3,16-diaza-tricyclo[14.3.0.0^4,6]nonadec-7-ene-4-carboxylic acid]: the IC50 at NS3-NS4A protease is under 1000 nM. For the same compound, the EC50 in experiment [1] (GS4.3 cells, 72 h incubation) is under 10000 nM.

Regarding `O=C(NC1CCCC1)N[C@H]1CCCCC/C=C\[C@@H]2C[C@@]2(C(=O)O)NC(=O)[C@@H]2C[C@@H](OC(=O)N3CCc4ccccc4C3)CN2C1=O` [AR00294378, (1S,4R,6S,14S,18R)-14-(3-Cyclopentyl-ureido)-18-(3,4-dihydro-1H-isoquinoline-2-carbonyloxy)-2,15-dioxo-3,16-diaza-tricyclo[14.3.0.0^4,6]nonadec-7-ene-4-carboxylic acid], the IC50 at NS3-NS4A protease is under 1000 nM. Also, the EC50 in experiment [1] (GS4.3 cells, 72 h incubation) was under 10000 nM.

In the case of `CC(C)(C)OC(=O)N[C@H]1CCCCC/C=C\[C@@H]2C[C@@]2(C(=O)NS(=O)(=O)C2CC2)NC(=O)[C@@H]2C[C@@H](OC(=O)N3Cc4ccccc4C3)CN2C1=O` [AR00294381, (1S,4R,6S,14S,18R)-1,3-Dihydro-isoindole-2-carboxylic acid 14-tert-butoxycarbonylamino-4-cyclopropanesulfonylaminocarbonyl-2,15-dioxo-3,16-diaza-tricyclo[14.3.0.0^4,6]nonadec-7-en-18-yl ester], the IC50 at NS3-NS4A protease is under 100 nM. The EC50 in experiment [1] (GS4.3 cells, 72 h incubation) is under 100 nM.

As for `CC(C)(C)OC(=O)N[C@H]1CCCCC/C=C\[C@@H]2C[C@@]2(C(=O)O)NC(=O)[C@@H]2C[C@@H](OC(=O)N3CCc4c(F)cccc4C3)CN2C1=O` [AR00294384, (1S,4R,6S,14S,18R)-14-tert-Butoxycarbonylamino-18-(5-fluoro-3,4-dihydro-1H-isoquinoline-2-carbonyloxy)-2,15-dioxo-3,16-diaza-tricyclo[14.3.0.0^4,6]nonadec-7-ene-4-carboxylic acid], the IC50 on NS3-NS4A protease is under 1000 nM. In addition, the half-maximal effective concentration (EC50) in experiment [1] (GS4.3 cells, 72 h incubation) is under 10000 nM.

In the case of `CC(C)(C)OC(=O)N[C@H]1CCCCC/C=C\[C@@H]2C[C@@]2(C(=O)NS(=O)(=O)C2CC2)NC(=O)[C@@H]2C[C@@H](OC(=O)N3CCc4c(F)cccc4C3)CN2C1=O` [AR00298996, (1S,4R,6S,14S,18R)-5-Fluoro-3,4-dihydro-1H-isoquinoline-2-carboxylic acid 14-tert-butoxycarbonylamino-4-cyclopropanesulfonylaminocarbonyl-2,15-dioxo-3,16-diaza-tricyclo[14.3.0.0^4,6]nonadec-7-en-18-yl ester], the IC50 on NS3-NS4A protease was under 100 nM. Further, the concentration giving a half-maximal response (EC50) in experiment [1] (GS4.3 cells, 72 h incubation) was under 100 nM.
